Data reported in patent publication US7445897B2, “Sequence variants of multi-drug resistance genes, MDR1 and MRP1, and methods for assessment of drug penetration and disposition” (University of Washington, priority 2004, dated 2008).
Where two headings read alike, the source gives them in different places.

Assays:
[1] = target: P-gp (MDR11199, G1199A) in recombinant LLC-PK1 cells (Homo sapiens, UniProt P08183, S400N)
[2] = test system: Pgp (MDR1 and 1199 variants) in recombinant HEK cells; assay: Doxorubicin intracellular accumulation in recombinant HEK cells; assay type: cell-based, human; conditions: recombinant HEK cells expressing MDR1, any variant
Procedure: Cells were washed with ice-cold PBS, trypsinized, and lysed in 0.5% deoxycholic acid. To precipitate the proteins tricholoracetic acid was added to 5% and the cell lysates were incubated for 30 min at 4° C. and centrifuged at 20,000 g.

[3] = test system: LLC-PK1 control cells
[4] = target: MDR1 (1199A variant) (Homo sapiens, UniProt P08183, G185V/S400N/S893A); assay: Intracellular uptake of HIV protease inhibitors; conditions: recombinant LLC-PK1 cells expressing MDR1-1199A
[5] = target: MDR1 (wild type) (Homo sapiens, UniProt P08183, G185V/S893A); assay: in vitro
[6] = van Heeswijk et al. 2001; cited from earlier work
[7] = test system: LLC-PK1 control cells; assay: Intracellular uptake of HIV protease inhibitors; assay type: in vitro ADME, porcine
[8] = healthy human subjects; Greiner et al. 1999; cited from earlier work
[9] = target: T1, rMRP1 (Rattus norvegicus, UniProt Q8CG09); assay: Calcein efflux in rMRP1-expressing MDCK-II cells; assay type: cell-based; conditions: indomethacin 100 μM, MK571 10 μM
T1 construct: expressed in transfected cells
From the text: These recombinant cells were derived from MDCK-II epithelial cells that form tight junctions, suitable for transepithelial transport assessment. Several stable clones of epithelial cells that consistently express rMRP1 were constructed, which could be differentiated to form a polarized monolayer for transepithelial flux studies. […] The cells that consistently over-expressed rMRP1 were expanded from a single cell clone and analyzed for MRP1 function.

[10] = test system: P-gp (MDR11199, G1199A) in recombinant LLC-PK1 cells; conditions: human, LLC-PK1
[11] = target: MDR1-1199A in recombinant LLC-PK1 cells (Homo sapiens, UniProt P08183, G185V/S400N/S893A)
[12] = target: MDR1-wt in recombinant LLC-PK1 cells (Homo sapiens, UniProt P08183, G185V/S893A)
[13] = test system: MDR1 (wild type); assay: Cytotoxic drug sensitivity assay (MTS); assay type: cell-based, human; conditions: human, HEK293 cells recombinantly expressing MDR1 wild type
[14] = target: T1, rMRP1; assay: Transepithelial transport in differentiated rMRP1-MDCK cells; assay type: in vitro ADME
From the text: These stable recombinant cells can be used to evaluate drug candidates that are either MRP1 substrates or inhibitors, as well as further elucidate MRP1 structure and function.

[15] = test system: LLC-PK1 control cells; assay: Cytotoxic drug sensitivity assay (3H-thymidine); assay type: cell-based, porcine; conditions: Sus scrofa, 72 h, 3 days with drug
Procedure: (§1) On the second day of the incubation, 1 μCi of ^3H-thymidine (specific activity: 81.1 Ci/mmole) was added to each well and incubated overnight. Cells were harvested on day 3 with a cell harvester.
(§2) Dose response analysis was performed for doxorubicin, vincristine and vinblastine. […] TRANSEPITHELIAL TRANSPORT

[16] = test system: recombinant MDR11199 LLC-PK1 cells; assay: Cytotoxic drug sensitivity assay (3H-thymidine); assay type: cell-based, porcine; conditions: for EC50 fold-change from control: MDR11199 vs LLC-PK1 control; for resistance of MDR11199 cells relative to MDR1wt cells: MDR11199 vs MDR1wt, from EC50; for EC50: Sus scrofa, 72 h, MDR11199 LLC-PK1 cells, 3 days with drug; for resistance of MDR11199 cells compared with MDR1wt cells: cytotoxicity studies, LLC-PK1
Procedure: as §1, §2

[17] = test system: recombinant MDR1wt LLC-PK1 cells; assay: Cytotoxic drug sensitivity assay (3H-thymidine); assay type: cell-based, porcine; conditions: for EC50 fold-change from control: MDR1wt vs LLC-PK1 control; for EC50: Sus scrofa, 72 h, MDR1wt LLC-PK1 cells, 3 days with drug
Procedure: as §1, §2

[18] = test system: MDR1 (G1199A variant); assay: in vitro; conditions: human; for EC50 at 72 h: HEK293 cells recombinantly expressing MDR1 G1199A
[19] = test system: MDR1 (G1199T variant); assay: Cytotoxic drug sensitivity assay (MTS); assay type: cell-based, human; conditions: human, HEK293 cells recombinantly expressing MDR1 G1199T
[20] = test system: HEK negative control cells; assay: Cytotoxic drug sensitivity assay (MTS); assay type: cell-based, human
[21] = target: T2, MDR1wt in recombinant HEK cells (Homo sapiens, UniProt P08183, G185V/S893A); assay: Intracellular levels of Rhodamine123 in HEK cells; assay type: cell-based
T2 construct: full-length MDR1 cDNA was generated using the high-fidelity protocol developed previously; expressed in transfected cells

[22] = test system: HEK293 control cells; assay: Intracellular levels of Rhodamine123 in HEK cells; assay type: cell-based, human
[23] = target: T3, MDR1G1199T in recombinant HEK cells (Homo sapiens, UniProt P08183, G185V/S400I/S893A); assay: Intracellular levels of Rhodamine123 in HEK cells; assay type: cell-based
T3 construct: full-length MDR1 cDNA was generated using the high-fidelity protocol developed previously; expressed in transfected cells

[24] = target: T4, MDR1G1199A in recombinant HEK cells (Homo sapiens, UniProt P08183, G185V/S400N/S893A); assay: Intracellular levels of Rhodamine123 in HEK cells; assay type: cell-based
T4 construct: full-length MDR1 cDNA was generated using the high-fidelity protocol developed previously; expressed in transfected cells

[25] = test system: HEK - MDR1 WT cells; assay: Cytotoxic drug sensitivity assay (MTS); assay type: cell-based, human; conditions: HEK MDR1 WT; 72hours, MTS; read-out: EC50 (Mean ± S.D.)
[26] = test system: HEK - MDR1 G1199T cells; assay: Cytotoxic drug sensitivity assay (MTS); assay type: cell-based, human; conditions: HEK MDR1 G1199T; 72hours, MTS; read-out: EC50 (Mean ± S.D.)
[27] = test system: HEK - MDR1 G1199A cells
[28] = protease inhibitor + GF120918 (1 μM)
[29] = HEK MDR1 WT, 72hours, MTS, read-out: EC50 (Mean ± S.D.)
[30] = Homo sapiens, 72 h, HEK Control, 72hours, MTS, read-out: EC50 (Mean ± S.D.)
[31] = 0.5 uM, 30 min load, 30 min efflux

T4 sequence (P08183 whole entry G185V/S400N/S893A): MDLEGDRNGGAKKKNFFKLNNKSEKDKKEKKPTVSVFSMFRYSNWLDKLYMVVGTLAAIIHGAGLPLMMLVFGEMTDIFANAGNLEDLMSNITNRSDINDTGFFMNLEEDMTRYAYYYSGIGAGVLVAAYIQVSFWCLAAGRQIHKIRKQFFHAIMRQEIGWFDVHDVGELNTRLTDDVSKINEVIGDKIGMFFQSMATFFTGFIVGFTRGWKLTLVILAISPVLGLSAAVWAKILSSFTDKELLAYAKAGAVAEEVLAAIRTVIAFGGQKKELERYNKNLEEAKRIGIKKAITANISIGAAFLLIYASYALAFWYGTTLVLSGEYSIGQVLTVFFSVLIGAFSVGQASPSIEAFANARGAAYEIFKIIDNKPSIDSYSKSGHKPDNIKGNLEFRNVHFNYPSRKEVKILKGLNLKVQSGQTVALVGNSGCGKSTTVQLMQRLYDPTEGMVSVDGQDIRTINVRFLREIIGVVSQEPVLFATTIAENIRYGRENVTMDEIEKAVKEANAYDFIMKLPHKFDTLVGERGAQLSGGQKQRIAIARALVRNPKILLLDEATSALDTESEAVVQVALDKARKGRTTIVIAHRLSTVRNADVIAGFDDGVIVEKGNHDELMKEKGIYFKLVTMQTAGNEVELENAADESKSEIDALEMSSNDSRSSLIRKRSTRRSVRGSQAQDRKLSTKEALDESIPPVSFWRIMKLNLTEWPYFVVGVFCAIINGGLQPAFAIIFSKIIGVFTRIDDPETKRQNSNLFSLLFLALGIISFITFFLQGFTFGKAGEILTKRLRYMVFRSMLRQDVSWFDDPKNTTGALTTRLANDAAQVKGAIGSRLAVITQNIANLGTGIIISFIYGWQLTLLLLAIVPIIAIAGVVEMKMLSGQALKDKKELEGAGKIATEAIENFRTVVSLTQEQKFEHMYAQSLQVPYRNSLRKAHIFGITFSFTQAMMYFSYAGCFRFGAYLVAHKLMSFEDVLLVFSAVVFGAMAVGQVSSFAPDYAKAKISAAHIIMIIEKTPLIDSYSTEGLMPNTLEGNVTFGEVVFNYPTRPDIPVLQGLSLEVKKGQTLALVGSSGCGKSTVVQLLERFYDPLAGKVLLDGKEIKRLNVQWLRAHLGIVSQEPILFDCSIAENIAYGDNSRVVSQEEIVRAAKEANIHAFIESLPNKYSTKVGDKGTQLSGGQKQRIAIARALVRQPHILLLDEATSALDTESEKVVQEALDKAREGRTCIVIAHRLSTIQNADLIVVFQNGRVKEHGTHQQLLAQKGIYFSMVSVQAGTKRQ
Chain of MDR1 (1199A variant) (P08183 whole entry G185V/S400N/S893A): as above
T1 sequence (Q8CG09 whole entry): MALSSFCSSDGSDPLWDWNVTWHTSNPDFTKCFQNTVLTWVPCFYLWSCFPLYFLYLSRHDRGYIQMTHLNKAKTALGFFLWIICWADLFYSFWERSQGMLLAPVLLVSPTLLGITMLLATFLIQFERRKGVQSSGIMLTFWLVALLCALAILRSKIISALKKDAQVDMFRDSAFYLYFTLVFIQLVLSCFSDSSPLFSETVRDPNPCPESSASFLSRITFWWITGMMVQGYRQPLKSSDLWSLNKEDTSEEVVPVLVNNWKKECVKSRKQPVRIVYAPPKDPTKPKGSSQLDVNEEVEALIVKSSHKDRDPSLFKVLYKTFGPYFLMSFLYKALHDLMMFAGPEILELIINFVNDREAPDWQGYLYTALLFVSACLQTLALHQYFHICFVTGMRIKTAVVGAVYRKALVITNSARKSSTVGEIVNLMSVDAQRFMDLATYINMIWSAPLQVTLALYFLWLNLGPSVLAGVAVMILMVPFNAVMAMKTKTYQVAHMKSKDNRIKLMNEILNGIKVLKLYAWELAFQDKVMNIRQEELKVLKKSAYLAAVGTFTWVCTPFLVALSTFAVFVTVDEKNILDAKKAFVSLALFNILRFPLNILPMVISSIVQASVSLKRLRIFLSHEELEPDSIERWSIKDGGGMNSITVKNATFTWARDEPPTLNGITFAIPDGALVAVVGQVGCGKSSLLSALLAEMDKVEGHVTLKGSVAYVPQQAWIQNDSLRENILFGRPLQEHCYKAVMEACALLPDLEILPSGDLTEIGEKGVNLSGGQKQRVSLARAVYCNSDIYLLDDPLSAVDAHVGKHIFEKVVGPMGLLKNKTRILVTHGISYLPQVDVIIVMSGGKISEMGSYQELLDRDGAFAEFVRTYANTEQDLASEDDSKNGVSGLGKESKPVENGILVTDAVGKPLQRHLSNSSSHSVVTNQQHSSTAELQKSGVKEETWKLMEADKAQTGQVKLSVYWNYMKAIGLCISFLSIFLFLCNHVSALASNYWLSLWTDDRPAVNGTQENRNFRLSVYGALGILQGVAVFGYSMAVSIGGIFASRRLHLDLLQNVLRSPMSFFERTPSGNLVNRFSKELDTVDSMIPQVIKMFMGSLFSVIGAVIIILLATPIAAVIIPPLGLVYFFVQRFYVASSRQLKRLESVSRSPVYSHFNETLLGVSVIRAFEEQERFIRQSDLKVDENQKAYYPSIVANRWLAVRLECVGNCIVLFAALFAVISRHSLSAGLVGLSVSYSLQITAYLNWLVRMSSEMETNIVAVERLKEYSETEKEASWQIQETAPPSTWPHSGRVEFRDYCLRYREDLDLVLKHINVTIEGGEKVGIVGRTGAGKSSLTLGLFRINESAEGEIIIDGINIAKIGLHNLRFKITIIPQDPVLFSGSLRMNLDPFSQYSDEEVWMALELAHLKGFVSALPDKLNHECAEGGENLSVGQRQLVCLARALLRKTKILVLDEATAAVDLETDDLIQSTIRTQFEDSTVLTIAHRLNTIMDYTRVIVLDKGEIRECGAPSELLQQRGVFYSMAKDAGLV

For `COc1cc2c(cc1OC)CN(CCc1ccc(NC(=O)c3cccc4c(=O)c5cccc(OC)c5[nH]c34)cc1)CC2` [GF120918, N-(4-[2-(1,2,3,4-tetrahydro-6,7-dimethoxy-2-isoquinolinyl)ethyl]-phenyl)-9,10-dihydro-5-methoxy-9-oxo-4-acridine carboxamide], the “effect of inhibitor on P-gp efflux of protease inhibitors” value [1] was “effectively blocked P-gp activity” and the “effect of inhibitor on reduction in intracellular doxorubicin concentration” value [2] was “can be reversed”.

In the case of `CC(C)CN(C[C@@H](O)[C@H](Cc1ccccc1)NC(=O)O[C@H]1CCOC1)S(=O)(=O)c1ccc(N)cc1` [amprenavir], the “Rate of transfer dQ/dt ± s.d., A → B” value [3, 28] is reported as 10.8 ± 0.9, the “Rate of transfer dQ/dt ± s.d., B → A” value [3, 28] is reported as 10.2 ± 0.4 and the “Rate of transfer dQ/dt ± s.d., A → B” value ([3]; protease inhibitor alone, 5 μM) is reported as 9.33 ± 0.46. The “Rate of transfer dQ/dt ± s.d., B → A” value ([3]; protease inhibitor alone, 5 μM) was 11.6 ± 0.8, the Km [4] was 1 µM and the Km [5] was 10.2 µM. For the same compound, the “oral bioavailability in systemic circulation” value [6] was 35-90%, the Km [7] was 250 nM and the Vmax [7] was 0.048 pmole/min*10^6 cells.

In the case of `C[C@H]1O[C@@H](O[C@H]2[C@@H](O)C[C@H](O[C@H]3[C@@H](O)C[C@H](O[C@H]4CC[C@@]5(C)[C@H](CC[C@@H]6[C@@H]5C[C@@H](O)[C@]5(C)[C@@H](C7=CC(=O)OC7)CC[C@]65O)C4)O[C@@H]3C)O[C@@H]2C)C[C@H](O)[C@@H]1O` [digoxin], the “range in the oral bioavailability from inter-individual variation in intestinal MDR1 expression” value [8] is given as 7 fold.

For `COc1ccc2c(c1)c(CC(=O)O)c(C)n2C(=O)c1ccc(Cl)cc1` [indomethacin], the “effect of MRP1 inhibitor on calcein efflux” value [9] was “suppressed efflux transport of calcein back to the control level”.

With `CC(C)(C)NC(=O)[C@@H]1C[C@@H]2CCCC[C@@H]2CN1C[C@@H](O)[C@H](Cc1ccccc1)NC(=O)[C@H](CC(N)=O)NC(=O)c1ccc2ccccc2n1` [saquinavir] the “decrease in apical-to-basolateral flux in MDR11199 cells compared to MDR1wt cells” value [10] was 2.3 fold, the “Rate of transfer dQ/dt ± s.d., A → B” value [3, 28] was 3.48 ± 0.57 and the “Rate of transfer dQ/dt ± s.d., B → A” value [3, 28] was 7.36 ± 0.60. The “Rate of transfer dQ/dt ± s.d., A → B” value ([3]; protease inhibitor alone, 5 μM) was 3.02 ± 0.35, the “Rate of transfer dQ/dt ± s.d., B → A” value ([3]; protease inhibitor alone, 5 μM) was 8.03 ± 0.51 and the Km [4] was 14.5 µM. The Km [5] was 18 µM, the Vmax [11] was 1.00 pmole/min*10^6 cells and the Vmax [12] was 1.13 pmole/min*10^6 cells. The Km [7] was 2000 nM and the Vmax [7] was 1.47 pmole/min*10^6 cells.

With `CC[C@]1(O)C[C@@H]2CN(CCc3c([nH]c4ccccc34)[C@@](C(=O)OC)(c3cc4c(cc3OC)N(C)[C@H]3[C@@](O)(C(=O)OC)[C@H](OC(C)=O)[C@]5(CC)C=CCN6CC[C@]43[C@@H]65)C2)C1` [vinblastine] the EC50 at 72 h [13, 29] was 127 ± 13 nM, the directional transepithelial transport [14] was “exhibit directional transepithelial transport” and the EC50 [15] was 0.66 ± 0.22 nM. For the same compound, the “EC50 fold-change from control” value [16] was 23.8 fold, the “resistance of MDR11199 cells relative to MDR1wt cells” value [16] was “about 11 fold” and the EC50 [16] was 15.7 nM. The “resistance of MDR11199 cells compared with MDR1wt cells” value [16] was “more resistant”, the “EC50 fold-change from control” value [17] was 2.14 fold and the EC50 [17] was 1.41 ± 0.51 nM. The EC50 [18] was 243 ± 15.1 nM, the EC50 at 72 h ([19]; HEK MDR1 G1199T, 72hours, MTS, read-out: EC50 (Mean ± S.D.)) was 54.7 ± 7.99 nM and the EC50 [20, 30] was 1.45 ± 0.23 nM.

With `CC[C@]1(O)C[C@H]2CN(CCc3c([nH]c4ccccc34)[C@@](C(=O)OC)(c3cc4c(cc3OC)N(C=O)[C@H]3[C@@](O)(C(=O)OC)[C@H](OC(C)=O)[C@]5(CC)C=CCN6CC[C@]43[C@@H]65)C2)C1` [vincristine] the EC50 at 72 h ([13]; HEK - MDR1 WT, 0 month, 72 hours, read-out: EC50 for cell growth inhibition) was 494 ± 115 nM, the EC50 at 72 h ([13]; HEK - MDR1 WT, 1 months, 72 hours, read-out: EC50 for cell growth inhibition) was 512 ± 85.1 nM and the EC50 at 72 h ([13]; HEK - MDR1 WT, 2 months, 72 hours, read-out: EC50 for cell growth inhibition) was 710 ± 33.3 nM. For the same compound, the EC50 at 72 h [13, 29] was 710 ± 33.3 nM, the EC50 [15] was 0.37 ± 0.12 nM and the “EC50 fold-change from control” value [16] was 9.23 fold. For the same compound, the “resistance of MDR11199 cells relative to MDR1wt cells” value [16] was roughly 2.9 fold, the EC50 [16] was 3.41 ± 1.47 nM and the “resistance of MDR11199 cells compared with MDR1wt cells” value [16] was “more resistant”. For the same compound, the “EC50 fold-change from control” value [17] was 3.19 fold, the EC50 [17] was 1.18 ± 0.56 nM and the EC50 at 72 h [18] was 860 ± 51.8 nM. For the same compound, the EC50 at 72 h ([18]; EC50 for cell growth inhibition, HEK - MDR1 G1199A, 0 month, 72 hours) was 683 ± 276 nM, the EC50 at 72 h ([18]; EC50 for cell growth inhibition, HEK - MDR1 G1199A, 1 months, 72 hours) was 667 ± 87.5 nM and the EC50 at 72 h ([18]; EC50 for cell growth inhibition, HEK - MDR1 G1199A, 2 months, 72 hours) was 860 ± 51.8 nM. It also gave an EC50 at 72 h ([19]; HEK - MDR1 G1199T, 0 month, 72 hours, read-out: EC50 for cell growth inhibition) of 246 ± 84 nM, an EC50 [20, 30] of 10.2 ± 1.04 nM and an EC50 ([20]; Homo sapiens, 72 h, HEK negative control, 0 month, 72 hours, read-out: EC50 for cell growth inhibition) of 4.01 ± 1.29 nM. It also gave an EC50 ([20]; Homo sapiens, 72 h, HEK negative control, 1 months, 72 hours, read-out: EC50 for cell growth inhibition) of 6.68 ± 0.448 nM and an EC50 ([20]; Homo sapiens, 72 h, HEK negative control, 2 months, 72 hours, read-out: EC50 for cell growth inhibition) of 10.2 ± 1.04 nM.

With Rhodamine-123 [R123] the “Intracellular Rhodamine” value [21, 31] was 2.26 ± 0.06 Unit/mg protein, the “% of control” value ([21]; converted to HEK293) was 220% and the “% of control” value [22] was 100%. For the same compound, the “Intracellular Rhodamine” value [22, 31] was 4.66 ± 0.14 Unit/mg protein, the “Intracellular Rhodamine” value [23, 31] was 1.82 ± 0.17 Unit/mg protein and the “% of control” value ([23]; converted to HEK293) was 260%. For the same compound, the “Intracellular Rhodamine” value [24, 31] was 1.44 ± 0.12 Unit/mg protein and the “% of control” value ([24]; converted to HEK293) was 340%.

In the case of ivermectin, the EC50 [25] is reported as 3.809 ± 0.0273 µM, the EC50 [26] is reported as 3.84 ± 0.307 µM and the EC50 ([20]; HEK Control, 72hours, MTS, read-out: EC50 (Mean ± S.D.)) is reported as 4100 ± 210 nM. It also gave an EC50 [27] of 4.04 ± 0.0776 µM.
